The source of these data is patent US10851073B2, “Protein tyrosine phosphatase inhibitors and methods of use thereof” (Calico Life Sciences LLC, priority 2019, dated 2020).

Assay [1] relates to Pan T cells isolated from C57BL6 splenocytes. Description: T cell function assays (IFNγ and TNFα in supernatants). In kind it is cell-based, mouse. As to conditions: 0.3 μM compound, 3 days; for IFNγ [pg/mL] anti-CD3/CD28 / TNFα [pg/mL] anti-CD3/CD28: anti-CD3/CD28 stimulation. The protocol: Example 231: T Cell Function Assays Pan T cells were isolated from C57BL6 splenocytes using a MACS Pan T cell isolation kit II (Miltenyi Biotec, Auburn, Calif.) according to the manufacturer's instructions. Isolated T cells (200,000 cells/well in a 96 well flat-bottom plate) were cultured in RPMI 1640 supplemented with 10% FBS, […] 2-mercaptoethanol, 100 U/mL penicillin, and 100 μg/mL streptomycin, and incubated with 0.3 μM compound or DMSO in duplicates. After 1 hour, mouse T cell activator CD3/CD28 Dynabeads (ThermoFisher Scientific, Waltham, Mass.) were added at a 1:5 beads to cells ratio to stimulate the T cells for 3 days. T cells with or without compound were incubated in the absence of T cell activator beads to evaluate if compounds nonspecifically stimulate the T cells. After 3 days of stimulation, supernatants were collected and IFNγ and TNFα in supernatants were assessed using an MSD V-plex assay (Meso Scale Discovery, Rockville, Md.).

A further assay concerns IP10. Description: Cytokine measurement in mouse plasma. It is filed as in vivo. On the procedure:
Cytokine Measurement in Mouse Plasma. Whole blood was drawn into EDTA powder coated tubes by cardiac puncture from mice on day 8 of dosing with Compound 118 (2 hours after the 16th dose) and plasma was prepared by centrifugation. Cytokines in plasma were measured using the Th1/Th2 Cytokine & Chemokine 20-Plex Mouse ProcartaPlex™ Panel 1 (Invitrogen, Carlsbad, Calif.). IP10 levels (pg/mL) in vehicle or Compound 118 treated animals were reported.

The subject of assay [2] is Granzyme B+ cells within the CD8+ T cell population. Description: Granzyme B staining of CD8 T cells flow cytometry assay in mouse spleen. In kind it is in vivo. The protocol:
Granzyme B Staining of CD8 T Cells Flow Cytometry Assay in Mouse Spleen. Mice were sacrificed on day 8 of dosing with Compound 118 (2 hours after the 16th dose) and spleens were excised. Spleens were dissociated with a gentleMACS dissociator (Miltenyi Biotec, Bergisch Gladbach, Germany), red blood cells lysed, and single cell suspensions were prepared. Splenocytes were stained with Zombie UV™ Fixable Viability kit (Biolegend, San Diego, Calif.) diluted in Dulbecco's PBS for 10 minutes at room temperature to exclude dead cells followed by staining for surface markers for 45 minutes on ice using the following flow cytometry antibodies diluted in autoMACS Running Buffer (Miltenyi Biotec, Bergisch Gladbach, Germany): Brilliant Violet 510-labeled anti-CD45, Brilliant Ultraviolet 395-labeled anti-CD3, Brilliant Violet 786-labeled anti-CD4, APC/Cy7-labeled anti-CD8. […] After staining, cells were washed twice with autoMACS Running Buffer, and the samples were acquired on a BD LSRFortessa™ X20 flow cytometers (BD Biosciences, San Jose, Calif.) and analyzed with FLowJo V10 software (FlowJo, Ashland, Oreg.). […]
In general terms: In flow cytometry, cells or beads pass a laser one at a time.

For assay [3], the target named is T1, His tagged PTPN2 (TC45) protein (Homo sapiens, UniProt P17706).
T1 construct: made in house
T1 sequence (P17706 with tags, fused parts or gaps isoform P17706-2): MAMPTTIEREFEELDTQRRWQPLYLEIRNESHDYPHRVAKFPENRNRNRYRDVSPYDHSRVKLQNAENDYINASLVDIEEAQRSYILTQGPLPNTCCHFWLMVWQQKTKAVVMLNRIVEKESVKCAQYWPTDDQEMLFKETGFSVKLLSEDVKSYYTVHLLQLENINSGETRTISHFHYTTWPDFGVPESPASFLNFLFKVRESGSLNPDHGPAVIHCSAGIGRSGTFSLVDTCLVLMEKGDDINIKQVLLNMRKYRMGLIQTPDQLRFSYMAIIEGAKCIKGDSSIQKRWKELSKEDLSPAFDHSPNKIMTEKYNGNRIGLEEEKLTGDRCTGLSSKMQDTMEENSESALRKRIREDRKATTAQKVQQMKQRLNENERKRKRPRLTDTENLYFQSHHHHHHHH
The assay can be described thus: Mobility shift assay used to determine potency of PTPN2 inhibitors. It is filed as biochemical. To be noted: enzyme 0.5 nM, substrate 2 μM; read-out: PTPN2 MSA IC50. In a few lines:
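Enzyme (0.5 nM) preincubated with compound (12-point, 1:3 dilution) 10 min at room temperature in 50 mM HEPES pH 7.5, 1 mM EGTA, 10 mM EDTA, 0.01% Tween 20, 2 mM DTT; OG488-labelled phospho-insulin-receptor peptide substrate (2 μM) added for 10 min, then quenched. Microfluidic mobility shift (ex 488/em 530 nm) gave % conversion; IC50 from % inhibition.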

Setting [4] is: 10 mg/kg/dose oral BID, day 8 of dosing (2 hours post 16th dose), value ± SEM.

pIC50: −log10 of the molar value.

As usually defined, the pIC50 is the negative decadic logarithm of the IC50, by convention in mol/L. Turning to `CC(C)CCN[C@@H]1CCc2cc(O)c(N3CC(=O)NS3(=O)=O)c(F)c2C1` (single isomer, unassigned) [Compound 118], in assay [1], the “IFNγ [pg/mL] anti-CD3/CD28” value came out at 261.3 pg/mL, the “TNFα [pg/mL] anti-CD3/CD28” value was determined as 159.1 pg/mL, the “IFNγ [pg/mL] no stimulation” value worked out at 1.8 pg/mL and the “TNFα [pg/mL] no stimulation” value is on record as 1.1 pg/mL. Also, in the assay on IP10 (setting [4]), the “IP10 in plasma” value worked out at 256 ± 30 pg/mL. Further, in the assay on IP10 (day 8 of dosing), the “IP10 levels in plasma, fold higher than vehicle” value was 1.7 fold. Further, the “% GzB+ cells within splenic CD8+ T cells” value in assay [2] (setting [4]) is listed as 4.3±0.9%. The “frequency of granzyme B producing cells within CD8+ T population in spleen, fold higher than vehicle” value in assay [2] (day 8 of dosing) is 3.9 fold. Further, the negative logarithm of the IC50 (pIC50) in assay [3] was 8.00 to 9.00.
Turning to `O=C1CN(c2c(O)cc3c(c2F)C[C@H](NCCC(F)F)CC3)S(=O)(=O)N1` (single isomer, unassigned) [Compound 260], in assay [1], the “IFNγ [pg/mL] anti-CD3/CD28” value is 139.6 pg/mL, the “TNFα [pg/mL] anti-CD3/CD28” value came out at 100.0 pg/mL, the “IFNγ [pg/mL] no stimulation” value was determined as 0.8 pg/mL and the “TNFα [pg/mL] no stimulation” value was determined as 1.1 pg/mL. Moreover, in assay [3], the pIC50 is 8.00 to 9.00.
For `O=C1CN(c2c(O)cc3c(c2F)C[C@H](NCCCC(F)F)CC3)S(=O)(=O)N1` (single isomer, unassigned) [Compound 199] the same measures were 212.9 pg/mL, 147.8 pg/mL, 1.8 pg/mL, 1.1 pg/mL and over 9.00.
For the compound `CC(C)(CCN[C@@H]1CCc2cc(O)c(N3CC(=O)NS3(=O)=O)c(F)c2C1)C(F)(F)F` (single isomer, unassigned) [Compound 177], in assay [1], the “IFNγ [pg/mL] anti-CD3/CD28” value is 168.2 pg/mL, the “TNFα [pg/mL] anti-CD3/CD28” value is reported as 113.7 pg/mL, the “IFNγ [pg/mL] no stimulation” value turned out to be 1.0 pg/mL and the “TNFα [pg/mL] no stimulation” value came out at 0.7 pg/mL. For the same compound, the pIC50 in assay [3] is over 9.00.
For the compound `O=C1CN(c2c(O)cc3c(c2F)C[C@H](NCCC2CC2)CC3)S(=O)(=O)N1` (single isomer, unassigned) [Compound 133], in assay [1], the “IFNγ [pg/mL] anti-CD3/CD28” value came out at 204.1 pg/mL, the “TNFα [pg/mL] anti-CD3/CD28” value came to 142.0 pg/mL, the “IFNγ [pg/mL] no stimulation” value is given as 1.0 pg/mL and the “TNFα [pg/mL] no stimulation” value is given as 0.8 pg/mL. Besides, the pIC50 in assay [3] was 8.00 to 9.00.
Take `O=C1CN(c2c(O)cc3c(c2F)C[C@@H](NCCC(F)F)CC3)S(=O)(=O)N1` (single isomer, unassigned) [Compound 259]: in assay [3], the pIC50 is 7.00 to 8.00.
